Tested on: female subjects with normal hepatic function, mild, moderate or severe hepatic impairment
Assay: Safety and tolerability (TEAEs, clinical laboratory, vital signs, physical examination) after a single oral dose of 20 mg E4 monohydrate in the hepatic impairment study
Assay type: in vivo, human
Conditions: single oral 20 mg
Method: This was a Phase 1, multi-centre, open-label, PK, and safety study of a single oral dose of 20 mg E4 monohydrate in female subjects with normal hepatic function (Group 1), mild hepatic impairment (Group 2), moderate hepatic impairment (Group 3), and severe hepatic impairment (Group 4), as defined using the Child-Pugh classification at Screening.
Safety and tolerability assessments consisted of treatment-emergent AEs (TEAEs), clinical laboratory, vital signs, physical examination, and gynecological examination. Assessments were performed in accordance with Table 2 and Table 3 in Section 2.5.1.
AEs/TEAEs were recorded after signing of the ICF until completion of the follow up visit. Any clinically significant observations in results of clinical laboratory, vital signs, or physical examinations were recorded as AEs.
A TEAE is defined as any event not present prior to administration of the study drug or any event already present that worsens in either severity or frequency following exposure to the study drug.
The below listed tests were to be performed by the local laboratories at time points indicated in the Schedule of Assessments (Table 2).
Systolic and diastolic blood pressure and pulse were recorded after the subject had been resting for at least 5 minutes in the supine position at time points indicated in the Schedule of Assessments (Table 2). These assessments were made using an automated device. Body temperature and respiratory rate were measured subsequently.
A complete physical examination consisting of a review of all body systems was performed at time points indicated in the Schedule of Assessments (Table 2). A symptom-directed physical examination could be conducted at any time per Investigator's discretion.
2.6.2.2 Evaluation of Safety and Tolerability Safety and tolerability were assessed through TEAEs, clinical laboratory, vital signs, and physical examination findings, and any other parameter that was relevant for safety assessment.
A listing of all individual AEs is provided. Summary tables of TEAEs are presented by system organ class (SOC) based on the MedDRA terminology list (preferred terms): a table containing the number of subjects experiencing AEs by hepatic function, a table containing the number of subjects experiencing SAEs by hepatic function (if applicable), a table by hepatic function and relationship, and a table by hepatic function and severity.

[1] = Mild hepatic impairment (N = 8)
[2] = Moderate hepatic impairment (N = 8)
[3] = Normal hepatic function (N = 8)

C[C@]12CC[C@@H]3c4ccc(O)cc4CC[C@H]3[C@@H]1[C@@H](O)[C@@H](O)[C@@H]2O [E4 monohydrate, estetrol monohydrate]
TEAE by severity: Back pain, severity Mild [1]: 0 (0.0) n (%) | TEAE by severity: Back pain, severity Moderate [1]: 0 (0.0) n (%) | TEAE by severity: Diarrhea, severity Mild [1]: 0 (0.0) n (%) | TEAE by severity: Diarrhea, severity Moderate [1]: 0 (0.0) n (%) | TEAE by severity: Gastrointestinal disorders, severity Mild [1]: 0 (0.0) n (%) | TEAE by severity: Gastrointestinal disorders, severity Moderate [1]: 0 (0.0) n (%) | TEAE by severity: General disorders and administration site conditions, severity Mild [1]: 0 (0.0) n (%) | TEAE by severity: Haemarthrosis, severity Mild [1]: 1 (12.5) n (%) | TEAE by severity: Headache, severity Mild [1]: 0 (0.0) n (%) | TEAE by severity: Headache, severity Moderate [1]: 0 (0.0) n (%) | TEAE by severity: Hypertension, severity Mild [1]: 2 (25.0) n (%) | TEAE by severity: Musculoskeletal and connective tissue disorders, severity Mild [1]: 1 (12.5) n (%) | TEAE by severity: Musculoskeletal and connective tissue disorders, severity Moderate [1]: 0 (0.0) n (%) | TEAE by severity: Nervous system disorders, severity Mild [1]: 0 (0.0) n (%) | TEAE by severity: Nervous system disorders, severity Moderate [1]: 0 (0.0) n (%) | TEAE by severity: Pain in extremity, severity Mild [1]: 0 (0.0) n (%) | TEAE by severity: Pancreatitis, severity Moderate [1]: 0 (0.0) n (%) | TEAE by severity: Pyrexia, severity Mild [1]: 0 (0.0) n (%) | TEAE by severity: Renal and urinary disorders, severity Mild [1]: 0 (0.0) n (%) | TEAE by severity: Renal impairment, severity Mild [1]: 0 (0.0) n (%) | TEAE by severity: Vascular disorders, severity Mild [1]: 2 (25.0) n (%) | TEAE: Back pain [1]: 0 (0.0) n (%) | TEAE: Diarrhea [1]: 0 (0.0) n (%) | TEAE: Gastrointestinal disorders [1]: 0 (0.0) n (%) | TEAE: General disorders and administration site conditions [1]: 0 (0.0) n (%) | TEAE: Haemarthrosis [1]: 1 (12.5) n (%) | TEAE: Headache [1]: 0 (0.0) n (%) | TEAE: Hypertension [1]: 2 (25.0) n (%) | TEAE: Musculoskeletal and connective tissue disorders [1]: 1 (12.5) n (%) | TEAE: Nervous system disorders [1]: 0 (0.0) n (%) | TEAE: Pain in extremity [1]: 0 (0.0) n (%) | TEAE: Pancreatitis [1]: 0 (0.0) n (%) | TEAE: Pyrexia [1]: 0 (0.0) n (%) | TEAE: Renal and urinary disorders [1]: 0 (0.0) n (%) | TEAE: Renal impairment [1]: 0 (0.0) n (%) | TEAE: Total Subjects with at Least One TEAE [1]: 2 (25.0) n (%) | TEAE: Vascular disorders [1]: 2 (25.0) n (%) | TEAE by severity: Back pain, severity Mild [2]: 0 (0.0) n (%) | TEAE by severity: Back pain, severity Moderate [2]: 0 (0.0) n (%) | TEAE by severity: Diarrhea, severity Mild [2]: 2 (25.0) n (%) | TEAE by severity: Diarrhea, severity Moderate [2]: 0 (0.0) n (%) | TEAE by severity: Gastrointestinal disorders, severity Mild [2]: 2 (25.0) n (%) | TEAE by severity: Gastrointestinal disorders, severity Moderate [2]: 0 (0.0) n (%) | TEAE by severity: General disorders and administration site conditions, severity Mild [2]: 1 (12.5) n (%) | TEAE by severity: Haemarthrosis, severity Mild [2]: 0 (0.0) n (%) | TEAE by severity: Headache, severity Mild [2]: 1 (12.5) n (%) | TEAE by severity: Headache, severity Moderate [2]: 1 (12.5) n (%) | TEAE by severity: Hypertension, severity Mild [2]: 0 (0.0) n (%) | TEAE by severity: Musculoskeletal and connective tissue disorders, severity Mild [2]: 1 (12.5) n (%) | TEAE by severity: Musculoskeletal and connective tissue disorders, severity Moderate [2]: 0 (0.0) n (%) | TEAE by severity: Nervous system disorders, severity Mild [2]: 1 (12.5) n (%) | TEAE by severity: Nervous system disorders, severity Moderate [2]: 1 (12.5) n (%) | TEAE by severity: Pain in extremity, severity Mild [2]: 1 (12.5) n (%) | TEAE by severity: Pancreatitis, severity Moderate [2]: 0 (0.0) n (%) | TEAE by severity: Pyrexia, severity Mild [2]: 1 (12.5) n (%) | TEAE by severity: Renal and urinary disorders, severity Mild [2]: 0 (0.0) n (%) | TEAE by severity: Renal impairment, severity Mild [2]: 0 (0.0) n (%) | TEAE by severity: Vascular disorders, severity Mild [2]: 0 (0.0) n (%) | TEAE: Back pain [2]: 0 (0.0) n (%) | TEAE: Diarrhea [2]: 2 (25.0) n (%) | TEAE: Gastrointestinal disorders [2]: 2 (25.0) n (%) | TEAE: General disorders and administration site conditions [2]: 1 (12.5) n (%) | TEAE: Haemarthrosis [2]: 0 (0.0) n (%) | TEAE: Headache [2]: 2 (25.0) n (%) | TEAE: Hypertension [2]: 0 (0.0) n (%) | TEAE: Musculoskeletal and connective tissue disorders [2]: 1 (12.5) n (%) | TEAE: Nervous system disorders [2]: 2 (25.0) n (%) | TEAE: Pain in extremity [2]: 1 (12.5) n (%) | TEAE: Pancreatitis [2]: 0 (0.0) n (%) | TEAE: Pyrexia [2]: 1 (12.5) n (%) | TEAE: Renal and urinary disorders [2]: 0 (0.0) n (%) | TEAE: Renal impairment [2]: 0 (0.0) n (%) | TEAE: Total Subjects with at Least One TEAE [2]: 4 (50.0) n (%) | TEAE: Vascular disorders [2]: 0 (0.0) n (%) | TEAE by severity: Back pain, severity Mild [3]: 0 (0.0) n (%) | TEAE by severity: Back pain, severity Moderate [3]: 1 (12.5) n (%) | TEAE by severity: Diarrhea, severity Mild [3]: 0 (0.0) n (%) | TEAE by severity: Diarrhea, severity Moderate [3]: 1 (12.5) n (%) | TEAE by severity: Gastrointestinal disorders, severity Mild [3]: 0 (0.0) n (%) | TEAE by severity: Gastrointestinal disorders, severity Moderate [3]: 2 (25.0) n (%) | TEAE by severity: General disorders and administration site conditions, severity Mild [3]: 0 (0.0) n (%) | TEAE by severity: Haemarthrosis, severity Mild [3]: 0 (0.0) n (%) | TEAE by severity: Headache, severity Mild [3]: 0 (0.0) n (%) | TEAE by severity: Headache, severity Moderate [3]: 0 (0.0) n (%) | TEAE by severity: Hypertension, severity Mild [3]: 0 (0.0) n (%) | TEAE by severity: Musculoskeletal and connective tissue disorders, severity Mild [3]: 0 (0.0) n (%) | TEAE by severity: Musculoskeletal and connective tissue disorders, severity Moderate [3]: 1 (12.5) n (%) | TEAE by severity: Nervous system disorders, severity Mild [3]: 0 (0.0) n (%) | TEAE by severity: Nervous system disorders, severity Moderate [3]: 0 (0.0) n (%) | TEAE by severity: Pain in extremity, severity Mild [3]: 0 (0.0) n (%) | TEAE by severity: Pancreatitis, severity Moderate [3]: 1 (12.5) n (%) | TEAE by severity: Pyrexia, severity Mild [3]: 0 (0.0) n (%) | TEAE by severity: Renal and urinary disorders, severity Mild [3]: 0 (0.0) n (%) | TEAE by severity: Renal impairment, severity Mild [3]: 0 (0.0) n (%) | TEAE by severity: Vascular disorders, severity Mild [3]: 0 (0.0) n (%)
